This note sets out measurements from patent US10934300B2, “Atropisomerism for enhanced kinase inhibitor selectivity” (San Diego State University Foundation, priority 2017, dated 2021).

Data set [1] in a line: Experimental measurement of the barriers to rotation (racemization followed by chiral HPLC). It counts as physicochemical. The settings on record: for kobs: observed rate constant of racemization in ethanol at the heating temperature (not given), in s^-1. Here is the method:
Enantiomerically enriched atropisomeric pyrrolopyrimidine analogues were isolated via chiral HPLC (Daicel Chiralpak IA PN:80335, 3 mL/min, 80:20 or 50:50 hexanes:ethanol, 25° C.) and evaporated in vacuo. The enantiomerically enriched analogues were then dissolved in ethanol and placed in a sealed 2-dram vial and heated under constant temperature on an aluminum block. At each time point, an aliquot of the mixture was removed and quenched in an HPLC vial containing ice cold 80:20 hexanes:ethanol. Each sample was then injected into the chiral HPLC system (Daicel Chiralpak IA PN:80325, 1 mL/min, 80:20 or 50:50 hexanes:ethanol, 25° C.) and enantiomeric excess (ee) measured. The timepoint and enantiomeric excess (ee) data was then plotted in order to determine an observed rate constant, kobs, at the corresponding temperature. The barrier to rotation was then calculated using the relationship of kracemization=2*kenantiomenzation and then substituted into the Gibbs Free Energy Equation:
[formula] where h=Planck Constant, kb=Boltzmann Constant, T=Temp. (K), R=Gas Constant.

A further data set addresses Src kinase (Homo sapiens, UniProt P12931). Nature of the data set: Z'-LYTE kinase inhibition, Src. The note with it: for IC50: Table 4.
The target of the next data set is Ret kinase (Homo sapiens, UniProt P07949). The data set is described as follows: Z'-LYTE kinase inhibition, Ret. The note with it: for IC50: Ret IC50 (nM), Table 4.
The next data set concerns the target Abl (Homo sapiens, UniProt P00519). Nature of the data set: Z'-LYTE kinase inhibition, Abl. The note with it: Abl relative to Yes.
A further data set addresses Yes (Homo sapiens, UniProt P07947). The data set is described as follows: Z'-LYTE kinase inhibition, Yes.
Another data set deals with EGFR (Homo sapiens, UniProt P00533). The data set is described as follows: Z'-LYTE kinase inhibition, EGFR. The note with it: EGFR relative to Yes.
The subject of data set [2] is panel of tyrosine kinases. The data set is described as follows: Kinase inhibitor profiling across a panel of tyrosine kinases, selectivity score. The data set is classed as biochemical. Here is the method:
To analyze each analog's selectivity across the panel, selectivity scores were used (Davis et al., Nat. Biotechnol. 2011, 29, 1046-51), which are simply the number of kinases inhibited above a certain threshold divided by the number of kinases evaluated. […] For example at 1000 nM 2e-(R) yielded an S(40%) of 0.11 while 2e-(S) gave an S(40%) of 0.16. […] Differences in selectivity between 2e-(R) and 2e-(S) at 5000 nM (4.5 times the IC50 of 2e-(S) toward Src) and for 5 at 1000 nM (6.25 times the IC50 of 5 toward Src) can be viewed graphically across tyrosine kinases (FIG. 3). Importantly, similar trends were also observed across each of the atropisomeric series tested.
All samples were sent out to Life Technologies to obtain kinase inhibition data. A brief description of the assays and analyses are included below.
Assay Theory (SelectScreen® Kinase Profiling Services (Life Technologies, Madison, Wis. USA). The Z′-LYTE® biochemical assay employs a fluorescence-based, coupled-enzyme format and is based on the differential sensitivity of phosphorylated and non-phosphorylated peptides to proteolytic cleavage. The peptide substrate is labeled with two fluorophores—one at each end—that make up a FRET pair.
In the primary reaction, the kinase transfers the gamma-phosphate of ATP to a single tyrosine, serine or threonine residue in a synthetic FRET-peptide. In the secondary reaction, a site-specific protease recognizes and cleaves non-phosphorylated FRET-peptides. Phosphorylation of FRET-peptides suppresses cleavage by the Development Reagent. Cleavage disrupts FRET between the donor (i.e., coumarin) and acceptor (i.e., fluorescein) fluorophores on the FRET-peptide, whereas uncleaved, phosphorylated FRET-peptides maintain FRET. A ratiometric method, which calculates the ratio (the Emission Ratio) of donor emission to acceptor emission after excitation of the donor fluorophore at 400 nm, is used to quantitate reaction progress, as shown in the equation below: […]
A significant benefit of this ratiometric method for quantitating reaction progress is the elimination of well-to-well variations in FRET-peptide concentration and signal intensities. […] Both cleaved and uncleaved FRET-peptides contribute to the fluorescence signals and therefore to the Emission Ratio. The extent of phosphorylation of the FRET-peptide can be calculated from the Emission Ratio. The Emission Ratio will remain low 1f the FRET-peptide is phosphorylated (i.e., no kinase inhibition) and will be high if the FRET-peptide is non-phosphorylated (i.e., kinase inhibition).
Both cleaved and uncleaved FRET-peptides contribute to the fluorescence signals and therefore to the Emission Ratio. The extent of phosphorylation of the FRET-peptide can be calculated from the Emission Ratio. The Emission Ratio will remain low if the FRET-peptide is phosphorylated (i.e., no kinase inhibition) and will be high if the FRET-peptide is non-phosphorylated (i.e., kinase inhibition).

Several values for one entry are separate records, joined by “and”; a condition that tells them apart may be missing. Equal entries are not always repeated. Where two headings read alike, the source gives them in different places.

Sequence of Src kinase (P12931 whole entry): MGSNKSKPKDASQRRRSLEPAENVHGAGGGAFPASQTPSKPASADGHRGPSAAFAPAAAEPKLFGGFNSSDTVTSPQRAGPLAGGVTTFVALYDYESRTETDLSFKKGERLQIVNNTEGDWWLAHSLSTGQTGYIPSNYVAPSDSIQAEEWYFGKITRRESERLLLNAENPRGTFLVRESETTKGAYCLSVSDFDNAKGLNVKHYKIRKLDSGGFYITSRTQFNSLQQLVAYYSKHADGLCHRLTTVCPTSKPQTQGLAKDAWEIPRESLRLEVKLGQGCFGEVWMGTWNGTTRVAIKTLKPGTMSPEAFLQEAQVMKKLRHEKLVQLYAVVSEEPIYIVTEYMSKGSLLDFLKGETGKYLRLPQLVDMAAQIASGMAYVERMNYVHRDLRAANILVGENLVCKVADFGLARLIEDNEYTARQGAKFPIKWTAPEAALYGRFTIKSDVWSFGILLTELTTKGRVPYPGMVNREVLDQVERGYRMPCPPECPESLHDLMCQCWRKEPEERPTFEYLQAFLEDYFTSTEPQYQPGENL
Sequence of Ret kinase (P07949 29-1114): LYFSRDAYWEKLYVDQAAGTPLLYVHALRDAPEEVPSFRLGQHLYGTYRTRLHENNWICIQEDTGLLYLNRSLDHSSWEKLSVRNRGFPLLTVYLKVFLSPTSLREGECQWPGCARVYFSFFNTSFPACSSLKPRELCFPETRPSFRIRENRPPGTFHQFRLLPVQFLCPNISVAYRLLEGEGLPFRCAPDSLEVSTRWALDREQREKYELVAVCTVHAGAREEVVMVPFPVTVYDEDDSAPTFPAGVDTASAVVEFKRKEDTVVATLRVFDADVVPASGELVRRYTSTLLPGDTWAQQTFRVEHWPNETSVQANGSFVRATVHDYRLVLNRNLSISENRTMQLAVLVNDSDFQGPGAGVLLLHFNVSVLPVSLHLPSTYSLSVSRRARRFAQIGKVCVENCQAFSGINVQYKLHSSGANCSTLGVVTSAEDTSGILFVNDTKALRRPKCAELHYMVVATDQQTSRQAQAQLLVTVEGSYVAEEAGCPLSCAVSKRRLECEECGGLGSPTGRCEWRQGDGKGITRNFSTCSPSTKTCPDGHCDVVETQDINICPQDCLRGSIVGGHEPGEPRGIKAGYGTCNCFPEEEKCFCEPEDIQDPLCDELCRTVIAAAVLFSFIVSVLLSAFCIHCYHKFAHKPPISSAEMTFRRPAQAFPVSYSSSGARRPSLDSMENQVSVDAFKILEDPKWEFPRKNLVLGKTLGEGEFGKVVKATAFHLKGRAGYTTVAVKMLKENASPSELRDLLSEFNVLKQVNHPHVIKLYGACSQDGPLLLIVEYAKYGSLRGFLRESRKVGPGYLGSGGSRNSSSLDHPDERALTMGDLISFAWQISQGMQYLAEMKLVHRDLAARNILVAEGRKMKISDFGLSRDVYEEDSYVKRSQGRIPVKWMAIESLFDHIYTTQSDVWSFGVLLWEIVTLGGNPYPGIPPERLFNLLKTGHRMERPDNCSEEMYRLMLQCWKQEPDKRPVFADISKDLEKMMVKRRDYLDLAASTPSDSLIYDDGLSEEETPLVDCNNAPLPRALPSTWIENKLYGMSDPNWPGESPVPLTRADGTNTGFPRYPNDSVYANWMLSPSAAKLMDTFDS
Sequence of EGFR (P00533 25-1210): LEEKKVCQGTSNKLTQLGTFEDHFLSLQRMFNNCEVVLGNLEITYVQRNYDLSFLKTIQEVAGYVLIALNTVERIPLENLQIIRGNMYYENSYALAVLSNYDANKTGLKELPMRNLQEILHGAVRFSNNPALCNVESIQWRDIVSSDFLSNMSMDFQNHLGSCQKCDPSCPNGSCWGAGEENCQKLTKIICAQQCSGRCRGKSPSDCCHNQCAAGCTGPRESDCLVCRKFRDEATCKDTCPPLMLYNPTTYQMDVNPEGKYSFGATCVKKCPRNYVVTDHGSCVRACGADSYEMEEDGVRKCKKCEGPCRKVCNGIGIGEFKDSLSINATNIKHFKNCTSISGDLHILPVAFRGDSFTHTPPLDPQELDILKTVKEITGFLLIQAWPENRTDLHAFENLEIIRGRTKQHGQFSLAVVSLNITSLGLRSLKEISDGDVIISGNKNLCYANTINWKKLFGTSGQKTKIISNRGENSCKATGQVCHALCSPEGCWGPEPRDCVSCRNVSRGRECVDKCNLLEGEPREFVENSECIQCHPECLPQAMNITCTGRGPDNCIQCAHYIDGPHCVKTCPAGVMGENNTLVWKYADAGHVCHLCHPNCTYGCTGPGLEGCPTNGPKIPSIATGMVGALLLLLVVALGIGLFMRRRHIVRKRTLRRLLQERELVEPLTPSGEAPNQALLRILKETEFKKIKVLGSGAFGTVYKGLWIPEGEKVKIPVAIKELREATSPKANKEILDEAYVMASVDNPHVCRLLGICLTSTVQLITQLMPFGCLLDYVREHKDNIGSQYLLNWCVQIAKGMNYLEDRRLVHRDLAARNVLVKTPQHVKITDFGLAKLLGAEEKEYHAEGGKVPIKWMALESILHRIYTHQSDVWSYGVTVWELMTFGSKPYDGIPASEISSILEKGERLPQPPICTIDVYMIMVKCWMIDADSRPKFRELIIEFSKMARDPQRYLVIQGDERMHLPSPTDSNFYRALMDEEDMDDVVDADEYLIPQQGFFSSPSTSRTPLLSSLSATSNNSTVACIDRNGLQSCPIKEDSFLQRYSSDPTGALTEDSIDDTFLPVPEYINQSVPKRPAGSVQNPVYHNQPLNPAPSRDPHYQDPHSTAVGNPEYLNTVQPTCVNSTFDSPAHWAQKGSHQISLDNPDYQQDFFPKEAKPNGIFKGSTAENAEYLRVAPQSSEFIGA
Sequence of Yes (P07947 whole entry): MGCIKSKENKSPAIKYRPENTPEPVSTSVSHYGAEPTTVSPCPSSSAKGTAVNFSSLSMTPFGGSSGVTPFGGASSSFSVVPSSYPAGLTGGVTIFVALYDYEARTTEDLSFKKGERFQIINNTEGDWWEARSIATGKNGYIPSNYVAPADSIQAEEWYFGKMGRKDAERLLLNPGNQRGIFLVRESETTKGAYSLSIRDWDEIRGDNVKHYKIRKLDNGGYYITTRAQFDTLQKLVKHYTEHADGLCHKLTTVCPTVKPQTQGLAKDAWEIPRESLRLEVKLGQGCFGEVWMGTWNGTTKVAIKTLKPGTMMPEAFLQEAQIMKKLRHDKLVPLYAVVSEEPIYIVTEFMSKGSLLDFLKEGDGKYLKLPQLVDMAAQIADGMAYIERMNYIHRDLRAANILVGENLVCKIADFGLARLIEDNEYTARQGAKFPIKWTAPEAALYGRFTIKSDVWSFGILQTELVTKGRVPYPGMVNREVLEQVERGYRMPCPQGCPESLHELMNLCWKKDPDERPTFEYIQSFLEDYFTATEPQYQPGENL
Sequence of Abl (P00519 whole entry): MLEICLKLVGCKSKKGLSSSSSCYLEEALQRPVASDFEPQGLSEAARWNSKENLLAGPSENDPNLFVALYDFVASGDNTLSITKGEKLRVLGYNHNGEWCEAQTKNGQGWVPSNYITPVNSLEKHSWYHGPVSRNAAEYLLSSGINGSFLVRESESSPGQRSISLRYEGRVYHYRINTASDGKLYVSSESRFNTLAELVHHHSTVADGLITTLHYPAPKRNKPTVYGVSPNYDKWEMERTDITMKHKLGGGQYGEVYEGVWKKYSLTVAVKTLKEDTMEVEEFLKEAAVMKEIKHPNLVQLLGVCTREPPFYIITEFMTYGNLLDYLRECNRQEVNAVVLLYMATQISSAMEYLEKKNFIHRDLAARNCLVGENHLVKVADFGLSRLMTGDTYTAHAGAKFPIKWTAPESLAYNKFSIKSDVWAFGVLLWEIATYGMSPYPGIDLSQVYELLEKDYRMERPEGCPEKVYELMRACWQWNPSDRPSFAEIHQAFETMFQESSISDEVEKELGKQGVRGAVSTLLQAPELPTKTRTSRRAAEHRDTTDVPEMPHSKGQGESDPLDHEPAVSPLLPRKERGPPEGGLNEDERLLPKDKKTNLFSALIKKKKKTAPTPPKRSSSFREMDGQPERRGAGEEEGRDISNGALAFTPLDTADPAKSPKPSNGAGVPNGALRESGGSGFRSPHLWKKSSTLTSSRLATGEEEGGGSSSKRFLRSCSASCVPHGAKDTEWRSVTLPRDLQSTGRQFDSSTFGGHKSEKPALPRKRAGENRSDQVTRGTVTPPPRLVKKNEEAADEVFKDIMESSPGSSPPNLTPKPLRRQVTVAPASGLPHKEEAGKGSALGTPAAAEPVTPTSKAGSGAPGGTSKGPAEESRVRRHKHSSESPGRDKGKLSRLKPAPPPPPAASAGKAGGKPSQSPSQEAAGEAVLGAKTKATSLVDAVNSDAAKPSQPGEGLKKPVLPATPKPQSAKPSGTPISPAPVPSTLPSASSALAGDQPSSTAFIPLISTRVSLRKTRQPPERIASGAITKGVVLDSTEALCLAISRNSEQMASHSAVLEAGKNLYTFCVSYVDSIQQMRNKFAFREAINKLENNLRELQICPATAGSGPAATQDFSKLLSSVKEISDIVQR

As for `COc1ccc(Br)c(-c2c(Cl)n(C(C)(C)C)c3ncnc(N)c23)c1` [Compound 2f, 5-(2-bromo-5-methoxyphenyl)-7-(tert-butyl)-6-chloro-7H-pyrrolo[2,3-d]pyrimidin-4-amine], in data set [1], the “Barrier to Rotation” value came to 127 kJ/mol and the kobs was 2.68E−05.

Regarding `COc1ccc(C)c(-c2c(C)n(C(C)(C)C)c3ncnc(N)c23)c1` (single isomer, unassigned) [(Sa)-5], the IC50 against Src kinase (Src IC50 (nM)) came out at 4100 nM; on Ret kinase it was 2500 nM.

`COc1cc(-c2c(Cl)n(C(C)(C)C)c3ncnc(N)c23)c(Cl)cc1C` (single isomer, unassigned) [(Ra)-3]: the IC50 was above 10000 nM at Src kinase (Src IC50 (nM)) and 7070 nM against Ret kinase.

Turning to `COc1ccc(Cl)c(-c2c(C)n(C(C)C)c3ncnc(N)c23)c1` (single isomer, unassigned) [(Sa)-4], the values for the IC50 on Src kinase (Src IC50 (nM)) and against Ret kinase were 406 nM and 2270 nM, respectively.

With `COc1ccc(Cl)c(-c2c(Cl)n(C3CCCC3)c3ncnc(N)c23)c1` [Compound 1e, 6-chloro-5-(2-chloro-5-methoxyphenyl)-7-cyclopentyl-7H-pyrrolo[2,3-d]pyrimidin-4-amine], in data set [1], the “Barrier to Rotation” value was 114 kJ/mol and the kobs turned out to be 1.24E−04.

For the compound `COc1ccc(Br)c(-c2c(Cl)n(C3CCCC3)c3ncnc(N)c23)c1` [Compound 1f, 5-(2-bromo-5-methoxyphenyl)-6-chloro-7-cyclopentyl-7H-pyrrolo[2,3-d]pyrimidin-4-amine], in data set [1], the “Barrier to Rotation” value was determined as 121 kJ/mol and the kobs is 1.01E−05.

In the case of `COc1ccc(-c2c(Cl)n(C(C)(C)C)c3ncnc(N)c23)c(C)c1` (atropisomer, axis not shown; (Ra)) [(Ra)-2], the IC50 at Src kinase (read-out: Src IC50) was above 10000 nM; on Ret kinase, 1870 nM.

For the compound `COc1ccc(-c2c(C)n(C(C)(C)C)c3ncnc(N)c23)c(C)c1` (atropisomer, axis not shown; (Sa)) [(Sa)-7], the IC50 on Src kinase (Src IC50 (nM)) turned out to be 4750 nM; against Ret kinase, 918 nM.

Take `Cc1ccc(-c2c(C)n(C(C)C)c3ncnc(N)c23)c2ccccc12` (atropisomer, axis not shown; (Sa)) [(Sa)-11]: the IC50 on Src kinase (Src IC50 (nM)) is 4560 nM; at Ret kinase it was 2860 nM.

Consider `COc1ccc(C)c(-c2c(C)n(C(C)(C)C)c3ncnc(N)c23)c1` (single isomer, unassigned) [(Ra)-5], for which the IC50 against Src kinase (Src IC50 (nM)) was 6370 nM; against Ret kinase, 731 nM.

As to `COc1cc(-c2c(Cl)n(C(C)(C)C)c3ncnc(N)c23)c(Cl)cc1C` (single isomer, unassigned) [(Sa)-3], the IC50 is 918 nM on Src kinase (Src IC50 (nM)) and 4810 nM against Ret kinase.

With `COc1ccc(C)c(-c2c(Cl)n(C(C)(C)C)c3ncnc(N)c23)c1` (atropisomer, axis not shown; (Ra)) [(Ra)-1], the IC50 against Src kinase (Src IC50 (nM)) came to 4550 nM; against Ret kinase, 1580 nM.

Regarding `COc1ccc(C)c(-c2c(Cl)n(C(C)(C)C)c3ncnc(N)c23)c1` (atropisomer, axis not shown; (Sa)) [(Sa)-1], the figures for the half-inhibitory concentration (IC50) against Src kinase (Src IC50 (nM)) and at Ret kinase were 4090 nM and 2240 nM, respectively.

For `Cc1c(-c2cncc3ccccc23)c2c(N)ncnc2n1C(C)(C)C` (single isomer, unassigned) [(Sa)-12], the values for the IC50 on Src kinase (Src IC50 (nM)) and on Ret kinase were 316 nM and 17 nM, respectively.

For the compound `COc1ccc(-c2c(CN)n(C(C)(C)C)c3ncnc(N)c23)c(C)c1` (single isomer, unassigned) [(Ra)-8], the IC50 on Src kinase (Src IC50 (nM)) was found to be 5290 nM; on Ret kinase, 773 nM.

As to `Cc1c(-c2cccc3ccccc23)c2c(N)ncnc2n1C(C)(C)C` (single isomer, unassigned) [(Sa)-10], the values for the concentration for half-maximal inhibition (IC50) against Src kinase (Src IC50 (nM)) and on Ret kinase were above 10000 nM and 9560 nM, respectively.

`COc1ccc(Cl)c(-c2c(Br)n(C(C)(C)C)c3ncnc(N)c23)c1` (single isomer, unassigned) [(Sa)-6] gave an IC50 against Ret kinase of 8000 nM.

`Cc1c(-c2cccc3ccccc23)c2c(N)ncnc2n1C(C)C` (single isomer, unassigned) [(Ra)-9]: the figures for the IC50 against Src kinase (Src IC50 (nM)) and against Ret kinase were 1370 nM and 34 nM, respectively.

As to `Cc1c(-c2cncc3ccccc23)c2c(N)ncnc2n1C(C)(C)C` (single isomer, unassigned) [(Ra)-12], the IC50 was found to be 7450 nM on Src kinase (Src IC50 (nM)) and 282 nM at Ret kinase.

For the compound `COc1ccc(-c2c(C)n(C(C)(C)C)c3ncnc(N)c23)c(C)c1` (atropisomer, axis not shown; (Ra)) [(Ra)-7], the IC50 at Src kinase (Src IC50 (nM)) came to 3320 nM; on Ret kinase it was 450 nM.

For the compound `COc1cccc(-c2cn(C(C)(C)C)c3ncnc(N)c23)c1` [Compound 5, reference compound], the “IC50 of compound Kinase/IC50 of compound Yes” value against Abl was 2.65; at Src kinase (Src relative to Yes), 1.64; at Yes (Yes relative to Yes), 1; against Ret kinase (Ret relative to Yes), 1.4; against EGFR it was 7 and 6.96. At Yes, the “relative selectivities favoring Yes (IC50 kinase/IC50 YES) over Ret, Src, and Abl” value is reported as 1.4-2.65 fold. The “S(40%): number of kinases inhibited greater than 40% divided by number of kinases tested (including Src)” value turned out to be 0.44 in data set [2] (200 nM) and 0.72 in data set [2] (1000 nM). The “activity for the tyrosine kinase panel tested” value in data set [2] (200 nM and 1000 nM) was “near pan activity”.

As for `COc1ccc(Cl)c(-c2c(C)n(C(C)C)c3ncnc(N)c23)c1` (single isomer, unassigned) [(Ra)-4], the IC50 was 1330 nM against Src kinase (Src IC50 (nM)) and 699 nM against Ret kinase.

Turning to `COc1ccc(Cl)c(-c2c(Cl)n(C(C)(C)C)c3ncnc(N)c23)c1` [Compound 2e, 7-(tert-butyl)-6-chloro-5-(2-chloro-5-methoxyphenyl)-7H-pyrrolo[2,3-d]pyrimidin-4-amine], in data set [1], the “Barrier to Rotation” value was determined as 120 kJ/mol and the kobs is 3.27E−05.

As for `COc1ccc(-c2c(Cl)n(C(C)(C)C)c3ncnc(N)c23)c(C)c1` (atropisomer, axis not shown; (Sa)) [(Sa)-2], the IC50 was above 10000 nM against Src kinase (Src IC50 (nM)) and 3000 nM against Ret kinase.

The compound `COc1ccc(Cl)c(-c2c(Br)n(C(C)(C)C)c3ncnc(N)c23)c1` (single isomer, unassigned) [(Ra)-6] yielded an IC50 on Ret kinase of 1500 nM.

As for `Cc1c(-c2cccc3ccccc23)c2c(N)ncnc2n1C(C)(C)C` (atropisomer, axis not shown; (Ra)) [(Ra)-10], the IC50 on Src kinase (Src IC50 (nM)) came to 5570 nM; at Ret kinase, 282 nM.

As to `Cc1c(-c2cccc3ccccc23)c2c(N)ncnc2n1C(C)C` (single isomer, unassigned) [(Sa)-9], the IC50 against Src kinase (Src IC50 (nM)) is above 10000 nM; against Ret kinase, 8810 nM.

For `COc1ccc(-c2c(CN)n(C(C)(C)C)c3ncnc(N)c23)c(C)c1` (single isomer, unassigned) [(Sa)-8], the IC50 at Src kinase (Src IC50 (nM)) was above 10000 nM; on Ret kinase it was 9070 nM.

On to `Cc1c(-c2cccc3c2CCCC3)c2c(N)ncnc2n1C(C)(C)C` (atropisomer, axis not shown; (Ra)) [(Ra)-13], for which the IC50 against Src kinase (Src IC50 (nM)) and against Ret kinase was above 10000 nM throughout.

In general, IC50 refers to the point on the concentration scale where inhibition reaches its midpoint.
